Columns and labels:
[1] = molecular target: 5-hydroxytryptamine receptor 7 (Rattus norvegicus, UniProt P32305); experiment: Displacement of [3H]5-HT from rat 5-hydroxytryptamine 7 receptor expressed in CHO cells; format: cell-based
[2] = molecular target: D(2) dopamine receptor (Homo sapiens, UniProt P14416); experiment: Displacement of [3H]raclopride from human dopamine receptor D2A expressed in mouse Ltk cells; format: cell-based
[3] = molecular target: T1, 5-hydroxytryptamine receptor 1A (Homo sapiens, UniProt P08908); experiment: Displacement of [3H]8-OH-DPAT from human 5-hydroxytryptamine 1A receptor expressed in CHO cells; format: cell-based
T1 sequence (P08908 whole entry): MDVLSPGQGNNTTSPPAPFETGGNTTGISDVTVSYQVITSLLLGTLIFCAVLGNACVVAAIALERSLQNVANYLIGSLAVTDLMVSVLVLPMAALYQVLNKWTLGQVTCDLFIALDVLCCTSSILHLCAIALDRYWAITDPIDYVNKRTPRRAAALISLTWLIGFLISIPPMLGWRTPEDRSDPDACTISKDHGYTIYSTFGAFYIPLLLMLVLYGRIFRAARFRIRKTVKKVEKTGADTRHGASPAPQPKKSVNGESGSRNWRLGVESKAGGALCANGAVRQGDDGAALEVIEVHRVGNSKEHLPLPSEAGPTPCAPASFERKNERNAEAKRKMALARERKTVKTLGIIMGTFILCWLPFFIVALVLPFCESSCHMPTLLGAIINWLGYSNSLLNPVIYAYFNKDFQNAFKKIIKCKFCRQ

[4] = molecular target: 5-hydroxytryptamine receptor 7 (Rattus norvegicus) (UniProt P32305); experiment: Percent inhibition of 5-HT7-induced stimulation of cAMP production in CHO cells expressing rat 5-HT receptors at a concentration of 1 nM; format: cell-based
5-hydroxytryptamine receptor 7 (Rattus norvegicus), sequence (P32305 whole entry): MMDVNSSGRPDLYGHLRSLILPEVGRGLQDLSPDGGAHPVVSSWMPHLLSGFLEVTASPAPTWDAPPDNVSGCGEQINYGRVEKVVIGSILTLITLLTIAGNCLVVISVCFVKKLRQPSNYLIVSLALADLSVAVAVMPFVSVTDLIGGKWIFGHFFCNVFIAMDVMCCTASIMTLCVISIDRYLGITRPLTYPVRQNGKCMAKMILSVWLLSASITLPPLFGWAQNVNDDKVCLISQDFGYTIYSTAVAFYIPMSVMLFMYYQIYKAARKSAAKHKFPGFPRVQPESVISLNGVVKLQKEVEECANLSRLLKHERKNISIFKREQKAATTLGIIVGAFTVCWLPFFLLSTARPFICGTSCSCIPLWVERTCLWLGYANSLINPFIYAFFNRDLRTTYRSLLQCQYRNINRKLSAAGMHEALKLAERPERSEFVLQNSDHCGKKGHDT

[5] = molecular target: 5-hydroxytryptamine receptor 7 (Rattus norvegicus) (UniProt P32305); experiment: Percent inhibition of 5-HT7-induced stimulation of cAMP production in CHO cells expressing rat 5-HT receptors at a concentration of 100 nM; format: cell-based
[6] = molecular target: 5-hydroxytryptamine receptor 7 (Rattus norvegicus) (UniProt P32305); experiment: Percent inhibition of 5-HT7-induced stimulation of cAMP production in CHO cells expressing rat 5-HT receptors at a concentration of 10000 nM; format: cell-based
[7] = molecular target: 5-hydroxytryptamine receptor 7 (Rattus norvegicus) (UniProt P32305); details: CHO; 10000 nM
[8] = molecular target: 5-hydroxytryptamine receptor 7 (Rattus norvegicus) (UniProt P32305); details: CHO; 100 nM
[9] = molecular target: 5-hydroxytryptamine receptor 7 (Rattus norvegicus) (UniProt P32305); details: CHO; 1 nM
[10] = molecular target: 5-hydroxytryptamine receptor 7 (Rattus norvegicus) (UniProt P32305); experiment: Percent inhibition of 5-HT7-induced stimulation of cAMP production in CHO cells expressing rat 5-HT receptors by 100 nM 5-HT.; format: cell-based
[11] = molecular target: 5-hydroxytryptamine receptor 7 (Rattus norvegicus) (UniProt P32305); experiment: Percent inhibition of 5-HT7-induced stimulation of cAMP production in CHO cells expressing rat 5-HT receptors by 1 nM 5-HT.; format: cell-based
[12] = molecular target: 5-hydroxytryptamine receptor 7 (Rattus norvegicus) (UniProt P32305); experiment: Percent inhibition of 5-HT7-induced stimulation of cAMP production in CHO cells expressing rat 5-HT receptors by 10000 nM 5-HT.; format: cell-based

D(2) dopamine receptor, sequence (P14416 whole entry): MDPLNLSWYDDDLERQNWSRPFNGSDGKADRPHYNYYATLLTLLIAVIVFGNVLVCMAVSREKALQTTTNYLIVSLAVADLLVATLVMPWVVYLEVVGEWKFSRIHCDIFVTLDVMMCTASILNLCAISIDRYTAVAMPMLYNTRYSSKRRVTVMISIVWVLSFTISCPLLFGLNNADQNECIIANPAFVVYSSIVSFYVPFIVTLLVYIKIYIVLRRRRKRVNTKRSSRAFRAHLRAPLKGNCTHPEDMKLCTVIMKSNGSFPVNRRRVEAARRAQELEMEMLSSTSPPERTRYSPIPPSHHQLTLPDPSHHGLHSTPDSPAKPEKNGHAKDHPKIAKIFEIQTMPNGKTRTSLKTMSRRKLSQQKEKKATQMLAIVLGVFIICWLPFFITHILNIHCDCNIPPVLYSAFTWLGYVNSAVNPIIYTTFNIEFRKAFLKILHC
5-hydroxytryptamine receptor 7, sequence (P32305 whole entry): as the sequence (P32305 whole entry) above

Ki [1] | Ki [2] | Ki [3] | SMILES | other results
9.78 nM | – | 1.8 nM | CN1CCc2cccc3c2[C@H]1Cc1cccc(-c2ccccc2)c1-3 | inhibition [4]: 23%; inhibition [5]: 30%; inhibition [6]: 100%
36.2 nM | > 1000 nM | 139 nM | CN1CCc2cccc3c2[C@H]1Cc1cccc(-c2c(O)cccc2O)c1-3 | –
13 nM | 2030 nM | 554 nM | COc1cccc(OC)c1-c1cccc2c1-c1cccc3c1[C@@H](C2)N(C)CC3 | –
23 nM | 2500 nM | 48.8 nM | Cc1cccc(O)c1-c1cccc2c1-c1cccc3c1[C@@H](C2)N(C)CC3 (stereo in doubt; form 1) [listing 1 of 2 here] | –
20.8 nM | 2470 nM | 778 nM | Cc1cccc(C#N)c1-c1cccc2c1-c1cccc3c1[C@@H](C2)N(C)CC3 (stereo in doubt; form 1) [listing 1 of 2 here] | –
– | – | – | Cc1cccc(C#N)c1-c1cccc2c1-c1cccc3c1[C@@H](C2)N(C)CC3 (stereo in doubt; form 1) [listing 2 of 2 here] | inhibition [7]: 100%; inhibition [8]: 42%; inhibition [9]: 21%
– | – | – | Cc1cccc(O)c1-c1cccc2c1-c1cccc3c1[C@@H](C2)N(C)CC3 (stereo in doubt; form 1) [listing 2 of 2 here] | inhibition [10]: 72%; inhibition [11]: 11%; inhibition [12]: 100%
43.1 nM | 3380 nM | 319 nM | Cc1cccc(O)c1-c1cccc2c1-c1cccc3c1[C@@H](C2)N(C)CC3 (stereo in doubt; form 2) [listing 1 of 2 here] | –
3.79 nM | 498 nM | 142 nM | Cc1cccc(C#N)c1-c1cccc2c1-c1cccc3c1[C@@H](C2)N(C)CC3 (stereo in doubt; form 2) | –
– | – | – | Cc1cccc(O)c1-c1cccc2c1-c1cccc3c1[C@@H](C2)N(C)CC3 (stereo in doubt; form 2) [listing 2 of 2 here] | inhibition [4]: 21%; inhibition [5]: 43%; inhibition [6]: 100%
31.6 nM | – | > 7940 nM | Cc1cccc(S(=O)(=O)N(C)[C@H](C)CCN2CCC(C)CC2)c1 [SB-258719] | –

SMILES | Ki [1] | Ki [2] | Ki [3] | other results
O=C1Nc2cccc3c2[C@]1(CCCCN1CC=C(c2ccccc2)CC1)CCC3 | 3.31 nM | 105 nM | 170 nM | –
CN1CCc2cccc3c2[C@H]1Cc1cccc(-c2c(OS(=O)(=O)C(F)(F)F)cccc2OS(=O)(=O)C(F)(F)F)c1-3 | 708 nM | 2260 nM | > 10000 nM | –
